According to patent US20260274830A1, “DEUTERIUM-SUBSTITUTED PYRIDAZINE BENZOTHIOPHENE COMPOUND AND USE THEREOF” (MEDSHINE DISCOVERY INC., priority 2022, published 2026):

How the values were obtained:
[1] = biological target: T1, NLRP3 (Rattus norvegicus, UniProt D4A523); test: LPS-stimulated IL-1β release assay in rat primary microglia; assay type: cell-based; conditions: LPS 50 ng/ml 3 h, compound 0.5 h, Nigericin 0.3 μg/mL 1 h, IL-1β ELISA
T1 construct: Newborn SD rats were used to obtain mixed glial cells from the cerebral cortex; endogenous in cells; host or cells: primary microglia from the cerebral cortex of newborn SD rats, LPS-primed, nigericin-stimulated

[2] = Pharmacokinetic evaluation in SD rats in vivo; set-up: species or system SD rat
Method: (§1) The pharmacokinetic characteristics of the compound in rodents after intravenous injection and oral administration were tested according to the standard protocol. In the experiment, the candidate compound was formulated into clear solutions, and a single intravenous injection and oral administration were given to SD rats. The vehicle for intravenous injection and oral administration was a mixed vehicle composed of 5% dimethyl sulfoxide and 95% solutol with a content of 5%. Four male SD rats were used in this project. Two SD rats were administered via intravenous injections, and plasma samples were collected at 0.083, 0.25, 0.5, 1, 2, 4, 8, and 24 h post-administration. The other two SD rats were administered orally by gavage, and plasma samples were collected at 0.25, 0.5, 1, 2, 4, 8, and 24 h post-administration. Plasma concentrations were quantitatively analyzed by LC-MS/MS analysis method, and pharmacokinetic parameters such as peak concentration (Cmax), clearance (CL), half-life (T1/2), volume of distribution at steady state (Vdss), area under the drug-time curve (AUC0-last), and bioavailability (F) were calculated.
as §1, with “injections at a dose of 2 mg/kg,” for “injections,”, “gavage at a dose of 10 mg/kg,” for “gavage,”

[3] = Pharmacokinetic evaluation in beagle dogs in vivo; set-up: species or system beagle dog
Method: as §1, with “beagle dogs” for “rodents”, “after” for “after intravenous injection and”, “beagle dogs.” for “SD rats.”, “beagle dogs” for “SD rats”, “injections at a dose of 1 mg/kg,” for “injections,”, “gavage at a dose of 2 mg/kg,” for “gavage,”

[4] = IV and PO, oral bioavailability, oral exposure, half-life, clearance

T1 sequence (D4A523 whole entry): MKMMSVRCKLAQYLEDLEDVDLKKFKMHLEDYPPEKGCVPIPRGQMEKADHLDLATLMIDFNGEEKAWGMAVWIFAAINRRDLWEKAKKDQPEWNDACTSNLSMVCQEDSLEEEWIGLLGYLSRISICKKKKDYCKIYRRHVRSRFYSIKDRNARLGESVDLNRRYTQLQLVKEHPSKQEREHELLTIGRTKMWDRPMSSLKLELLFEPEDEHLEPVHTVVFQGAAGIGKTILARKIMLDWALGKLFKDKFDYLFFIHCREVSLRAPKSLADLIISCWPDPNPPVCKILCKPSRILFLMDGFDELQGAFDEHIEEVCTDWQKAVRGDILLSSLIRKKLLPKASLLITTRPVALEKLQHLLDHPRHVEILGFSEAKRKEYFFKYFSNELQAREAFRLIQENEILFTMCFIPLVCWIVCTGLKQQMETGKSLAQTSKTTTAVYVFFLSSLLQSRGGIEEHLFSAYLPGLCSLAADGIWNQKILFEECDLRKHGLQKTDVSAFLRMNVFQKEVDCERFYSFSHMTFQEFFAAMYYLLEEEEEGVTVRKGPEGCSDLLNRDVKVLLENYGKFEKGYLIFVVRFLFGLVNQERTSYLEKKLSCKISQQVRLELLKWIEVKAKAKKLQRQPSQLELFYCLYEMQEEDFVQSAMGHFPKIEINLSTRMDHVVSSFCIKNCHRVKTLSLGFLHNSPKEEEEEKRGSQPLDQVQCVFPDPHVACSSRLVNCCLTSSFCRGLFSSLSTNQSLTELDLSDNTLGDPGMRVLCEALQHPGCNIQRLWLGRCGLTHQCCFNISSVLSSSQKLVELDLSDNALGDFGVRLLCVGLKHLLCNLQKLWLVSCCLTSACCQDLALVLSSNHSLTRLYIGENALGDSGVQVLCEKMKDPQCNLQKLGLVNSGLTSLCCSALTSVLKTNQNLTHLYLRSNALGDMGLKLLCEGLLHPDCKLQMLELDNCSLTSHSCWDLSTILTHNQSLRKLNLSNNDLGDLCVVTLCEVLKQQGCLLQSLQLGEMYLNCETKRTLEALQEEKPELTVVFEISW

IC50 [1]: 35.8 nM
pharmacokinetic properties in SD rats in vivo (in words) [2, 4]: good pharmacokinetic properties
AUC(0-t) ([2]; male, rat, plasma, IV 2 mg/kg, read-out: Area under drug-time curve AUC0-last IV): 1.87 µM·h
clearance ([2]; male, rat, plasma, IV 2 mg/kg, read-out: Clearance CL): 47.4 mL/min/kg
half-life ([2]; male, rat, plasma, IV 2 mg/kg, read-out: Half-life T1/2 (IV) (converted)): 1.82 h
Vd ([2]; male, rat, plasma, IV 2 mg/kg, read-out: Volume of distribution at steady state Vdss): 6.99 L/kg
bioavailability ([2]; male, rat, plasma, PO 10 mg/kg vs IV 2 mg/kg, read-out: Bioavailability F): 27.1%
AUC(0-t) ([2]; male, rat, plasma, PO 10 mg/kg, read-out: Area under drug-time curve AUC0-last PO): 2.35 µM·h
Cmax ([2]; male, rat, plasma, oral gavage 10 mg/kg (route not given), read-out: Peak concentration Cmax): 593 nM
pharmacokinetic properties in beagle dogs in vivo (in words) [3, 4]: good pharmacokinetic properties
AUC(0-t) ([3]; male, dog, plasma, IV 1 mg/kg, read-out: Area under drug-time curve AUC0-last IV): 1.92 µM·h
clearance ([3]; male, dog, plasma, IV 1 mg/kg, read-out: Clearance CL): 25.7 mL/min/kg
half-life ([3]; male, dog, plasma, IV 1 mg/kg, read-out: Half-life T1/2 (IV) (converted)): 3.53 h
Vd ([3]; male, dog, plasma, IV 1 mg/kg, read-out: Volume of distribution at steady state Vdss): 6.9 L/kg
bioavailability ([3]; male, dog, plasma, PO 2 mg/kg vs IV 1 mg/kg, read-out: Bioavailability F): 80.9%
AUC(0-t) ([3]; male, dog, plasma, PO 2 mg/kg, read-out: Area under drug-time curve AUC0-last PO): 3.11 µM·h
Cmax ([3]; male, dog, plasma, oral gavage 2 mg/kg (route not given), read-out: Peak concentration Cmax): 504 nM
Compound: [2H]C([2H])([2H])N1CCC[C@@H](Nc2cc(C)c(-c3ccc4sccc4c3O)nn2)C1 [Compound II]
